Laboratory results published in ChEMBL document CHEMBL4507301 (2021).

Tests used:
[1] = target: AP2-associated protein kinase 1 (Homo sapiens) (UniProt Q2M2I8); settings: Compound concentration 1000.0 nM
[2] = target: Tyrosine-protein kinase ABL2 (Homo sapiens) (UniProt P42684); settings: Compound concentration 1000.0 nM
[3] = target: NUAK family SNF1-like kinase 1 (Homo sapiens) (UniProt O60285); settings: Compound concentration 1000.0 nM
[4] = target: Bone morphogenetic protein receptor type-1B (Homo sapiens) (UniProt O00238); settings: Compound concentration 1000.0 nM
[5] = tested on: Serine/threonine-protein kinase B-raf (Homo sapiens), P15056 [V600E]; settings: Compound concentration 1000.0 nM
[6] = target: Cyclin-dependent kinase 2 (Homo sapiens) (UniProt P24941); settings: Compound concentration 1000.0 nM
[7] = target: Cyclin-dependent kinase 4 (Homo sapiens) (UniProt P11802); settings: Compound concentration 1000.0 nM
Sequence of Cyclin-dependent kinase 4 (Homo sapiens) (P11802 whole entry, canonical isoform): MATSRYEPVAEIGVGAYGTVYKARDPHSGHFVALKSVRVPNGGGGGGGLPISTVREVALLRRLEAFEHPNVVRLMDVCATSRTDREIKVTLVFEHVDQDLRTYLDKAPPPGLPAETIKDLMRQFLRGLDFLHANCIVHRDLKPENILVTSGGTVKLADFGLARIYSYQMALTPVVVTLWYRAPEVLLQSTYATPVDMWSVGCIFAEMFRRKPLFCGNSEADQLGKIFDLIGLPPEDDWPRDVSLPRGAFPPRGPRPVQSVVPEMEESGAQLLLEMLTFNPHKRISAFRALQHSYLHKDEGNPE

[8] = target: Cyclin-dependent kinase 4 (Homo sapiens) (UniProt P11802); settings: Compound concentration 1000.0 nM; remark: listed apart in the source
[9] = target: Casein kinase I isoform gamma-3 (Homo sapiens) (UniProt Q9Y6M4); settings: Compound concentration 1000.0 nM
[10] = tested on: Epidermal growth factor receptor (Homo sapiens), P00533 [G719S]; settings: Compound concentration 1000.0 nM
[11] = target: Ephrin type-A receptor 8 (Homo sapiens) (UniProt P29322); settings: Compound concentration 1000.0 nM
[12] = target: Receptor tyrosine-protein kinase erbB-3 (Homo sapiens) (UniProt P21860); settings: Compound concentration 1000.0 nM
[13] = tested on: Fibroblast growth factor receptor 3 (Homo sapiens), P22607 [G697C]; settings: Compound concentration 1000.0 nM
[14] = target: Receptor-type tyrosine-protein kinase FLT3 (Homo sapiens) (UniProt P36888); settings: Compound concentration 1000.0 nM
[15] = tested on: Receptor-type tyrosine-protein kinase FLT3 (Homo sapiens), P36888 [D835V]; settings: Compound concentration 1000.0 nM
[16] = tested on: Receptor-type tyrosine-protein kinase FLT3 (Homo sapiens), P36888 [UNDEFINED MUTATION]; settings: Compound concentration 1000.0 nM
[17] = tested on: Receptor-type tyrosine-protein kinase FLT3 (Homo sapiens), P36888 [UNDEFINED MUTATION]; settings: Compound concentration 1000.0 nM; remark: listed apart in the source
[18] = target: Rhodopsin kinase GRK7 (Homo sapiens) (UniProt Q8WTQ7); settings: Compound concentration 1000.0 nM
[19] = target: Homeodomain-interacting protein kinase 1 (Homo sapiens) (UniProt Q86Z02); settings: Compound concentration 1000.0 nM
Sequence of Homeodomain-interacting protein kinase 1 (Homo sapiens) (Q86Z02 whole entry, looked up): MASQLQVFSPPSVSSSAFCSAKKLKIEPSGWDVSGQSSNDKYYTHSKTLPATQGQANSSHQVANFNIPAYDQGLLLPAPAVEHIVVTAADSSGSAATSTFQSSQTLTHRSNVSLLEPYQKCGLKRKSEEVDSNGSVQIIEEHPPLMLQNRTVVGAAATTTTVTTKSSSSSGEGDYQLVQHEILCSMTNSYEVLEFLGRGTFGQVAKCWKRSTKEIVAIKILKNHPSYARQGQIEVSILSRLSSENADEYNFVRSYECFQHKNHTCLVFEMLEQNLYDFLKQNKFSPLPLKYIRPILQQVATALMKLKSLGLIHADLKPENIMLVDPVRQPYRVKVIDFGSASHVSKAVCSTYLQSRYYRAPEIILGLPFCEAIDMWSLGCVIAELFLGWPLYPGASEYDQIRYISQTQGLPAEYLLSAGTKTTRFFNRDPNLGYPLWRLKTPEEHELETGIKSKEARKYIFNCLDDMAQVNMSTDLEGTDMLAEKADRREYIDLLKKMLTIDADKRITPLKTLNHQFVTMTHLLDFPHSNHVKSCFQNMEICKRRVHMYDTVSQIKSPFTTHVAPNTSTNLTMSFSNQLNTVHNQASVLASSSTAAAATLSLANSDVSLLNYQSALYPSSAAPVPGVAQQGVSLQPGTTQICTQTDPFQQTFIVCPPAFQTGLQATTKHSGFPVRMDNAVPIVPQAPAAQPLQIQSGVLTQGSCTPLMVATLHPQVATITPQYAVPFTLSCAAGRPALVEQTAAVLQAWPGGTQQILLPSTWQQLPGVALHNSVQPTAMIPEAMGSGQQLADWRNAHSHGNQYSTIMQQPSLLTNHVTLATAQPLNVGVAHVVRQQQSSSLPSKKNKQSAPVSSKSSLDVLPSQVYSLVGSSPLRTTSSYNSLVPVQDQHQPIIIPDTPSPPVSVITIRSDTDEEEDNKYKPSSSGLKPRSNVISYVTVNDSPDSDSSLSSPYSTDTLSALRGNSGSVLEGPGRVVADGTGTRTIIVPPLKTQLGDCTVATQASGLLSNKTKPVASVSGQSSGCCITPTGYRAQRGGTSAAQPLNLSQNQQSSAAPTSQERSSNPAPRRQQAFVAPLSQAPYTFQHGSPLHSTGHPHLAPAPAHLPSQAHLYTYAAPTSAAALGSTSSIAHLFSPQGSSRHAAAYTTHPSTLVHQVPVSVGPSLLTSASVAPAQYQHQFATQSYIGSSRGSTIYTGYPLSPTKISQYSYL

[20] = target: Homeodomain-interacting protein kinase 3 (Homo sapiens) (UniProt Q9H422); settings: Compound concentration 1000.0 nM
Sequence of Homeodomain-interacting protein kinase 3 (Homo sapiens) (Q9H422 whole entry, looked up): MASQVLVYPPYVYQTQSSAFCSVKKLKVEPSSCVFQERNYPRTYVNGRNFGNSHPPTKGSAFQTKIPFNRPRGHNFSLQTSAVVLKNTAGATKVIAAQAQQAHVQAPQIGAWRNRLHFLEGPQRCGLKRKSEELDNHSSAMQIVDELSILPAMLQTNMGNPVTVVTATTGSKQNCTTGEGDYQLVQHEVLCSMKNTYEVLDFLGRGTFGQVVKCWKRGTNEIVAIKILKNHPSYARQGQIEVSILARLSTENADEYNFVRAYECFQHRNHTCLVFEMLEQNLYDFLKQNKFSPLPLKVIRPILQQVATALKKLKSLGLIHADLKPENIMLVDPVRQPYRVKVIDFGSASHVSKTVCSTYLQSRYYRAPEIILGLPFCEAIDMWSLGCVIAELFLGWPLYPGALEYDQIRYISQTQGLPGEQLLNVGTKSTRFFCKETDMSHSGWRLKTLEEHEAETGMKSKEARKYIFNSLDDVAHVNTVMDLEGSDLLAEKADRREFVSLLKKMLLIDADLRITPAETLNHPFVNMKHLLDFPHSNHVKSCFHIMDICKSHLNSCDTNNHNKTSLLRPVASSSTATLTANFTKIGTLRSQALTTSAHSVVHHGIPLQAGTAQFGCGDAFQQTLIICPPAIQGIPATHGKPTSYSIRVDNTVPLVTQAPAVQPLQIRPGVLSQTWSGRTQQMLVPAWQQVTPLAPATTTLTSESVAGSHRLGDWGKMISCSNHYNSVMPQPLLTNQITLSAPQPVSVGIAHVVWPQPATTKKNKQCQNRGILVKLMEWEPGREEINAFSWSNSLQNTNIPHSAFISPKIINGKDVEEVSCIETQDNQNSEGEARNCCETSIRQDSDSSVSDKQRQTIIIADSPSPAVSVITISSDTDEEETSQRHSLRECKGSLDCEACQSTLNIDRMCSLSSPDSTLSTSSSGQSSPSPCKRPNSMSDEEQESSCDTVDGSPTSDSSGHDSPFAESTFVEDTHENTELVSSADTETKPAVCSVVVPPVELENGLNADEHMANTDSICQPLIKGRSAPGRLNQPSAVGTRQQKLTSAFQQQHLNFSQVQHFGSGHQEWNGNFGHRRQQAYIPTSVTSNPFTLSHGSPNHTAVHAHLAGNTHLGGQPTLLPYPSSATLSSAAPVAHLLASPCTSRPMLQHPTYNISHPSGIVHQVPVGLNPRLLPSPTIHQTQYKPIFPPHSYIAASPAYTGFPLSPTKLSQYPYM

[21] = tested on: Mast/stem cell growth factor receptor Kit (Homo sapiens), P10721 [V559D,T670I]; settings: Compound concentration 1000.0 nM
[22] = target: LIM domain kinase 1 (Homo sapiens) (UniProt P53667); settings: Compound concentration 1000.0 nM
[23] = target: Mitogen-activated protein kinase kinase kinase 15 (Homo sapiens) (UniProt Q6ZN16); settings: Compound concentration 1000.0 nM
[24] = target: Mitogen-activated protein kinase kinase kinase kinase 2 (Homo sapiens) (UniProt Q12851); settings: Compound concentration 1000.0 nM
[25] = target: Mitogen-activated protein kinase kinase kinase kinase 3 (Homo sapiens) (UniProt Q8IVH8); settings: Compound concentration 1000.0 nM
[26] = target: Serine/threonine-protein kinase MARK1 (Homo sapiens) (UniProt Q9P0L2); settings: Compound concentration 1000.0 nM
[27] = target: Dual specificity mitogen-activated protein kinase kinase 2 (Homo sapiens) (UniProt P36507); settings: Compound concentration 1000.0 nM
[28] = target: Mitogen-activated protein kinase kinase kinase 9 (Homo sapiens) (UniProt P80192); settings: Compound concentration 1000.0 nM
[29] = target: Serine/threonine-protein kinase MRCK beta (Homo sapiens) (UniProt Q9Y5S2); settings: Compound concentration 1000.0 nM
[30] = target: Serine/threonine-protein kinase 3 (Homo sapiens) (UniProt Q13188); settings: Compound concentration 1000.0 nM
Sequence of Serine/threonine-protein kinase 3 (Homo sapiens) (Q13188 whole entry): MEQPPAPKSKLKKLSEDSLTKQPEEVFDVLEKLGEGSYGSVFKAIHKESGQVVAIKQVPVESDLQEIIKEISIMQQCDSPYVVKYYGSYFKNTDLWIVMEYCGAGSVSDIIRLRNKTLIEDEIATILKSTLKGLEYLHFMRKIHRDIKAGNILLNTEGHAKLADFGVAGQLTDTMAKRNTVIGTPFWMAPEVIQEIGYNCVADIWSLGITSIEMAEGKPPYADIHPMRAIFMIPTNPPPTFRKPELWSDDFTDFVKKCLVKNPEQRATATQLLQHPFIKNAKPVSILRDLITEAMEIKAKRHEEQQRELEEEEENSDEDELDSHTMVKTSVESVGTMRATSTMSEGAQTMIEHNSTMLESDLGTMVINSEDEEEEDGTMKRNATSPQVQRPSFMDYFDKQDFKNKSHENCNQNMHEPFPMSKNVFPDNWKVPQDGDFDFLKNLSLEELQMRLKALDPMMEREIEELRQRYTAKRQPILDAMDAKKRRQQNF

[31] = target: Cyclin-dependent kinase 18 (Homo sapiens) (UniProt Q07002); settings: Compound concentration 1000.0 nM
[32] = target: Cyclin-dependent kinase 15 (Homo sapiens) (UniProt Q96Q40); settings: Compound concentration 1000.0 nM
Sequence of Cyclin-dependent kinase 15 (Homo sapiens) (Q96Q40 whole entry, the tested form may be a part): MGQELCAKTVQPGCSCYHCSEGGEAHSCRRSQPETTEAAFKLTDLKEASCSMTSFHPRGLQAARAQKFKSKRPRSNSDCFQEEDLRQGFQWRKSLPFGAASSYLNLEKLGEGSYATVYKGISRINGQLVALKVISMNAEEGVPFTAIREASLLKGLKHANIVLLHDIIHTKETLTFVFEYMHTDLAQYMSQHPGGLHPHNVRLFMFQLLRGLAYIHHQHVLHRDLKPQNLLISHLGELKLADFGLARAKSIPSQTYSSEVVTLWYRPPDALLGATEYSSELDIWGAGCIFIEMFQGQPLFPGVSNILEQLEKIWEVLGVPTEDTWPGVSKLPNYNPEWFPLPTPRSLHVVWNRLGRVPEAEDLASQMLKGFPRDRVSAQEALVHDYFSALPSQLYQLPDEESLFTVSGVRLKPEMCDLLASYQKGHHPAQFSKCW

[33] = target: Phosphatidylinositol 3-kinase C2 domain-containing subunit gamma (Homo sapiens) (UniProt O75747); settings: Compound concentration 1000.0 nM
[34] = target: Phosphatidylinositol 4,5-bisphosphate 3-kinase catalytic subunit alpha isoform (Homo sapiens) (UniProt P42336); settings: Compound concentration 1000.0 nM
[35] = tested on: Phosphatidylinositol 4,5-bisphosphate 3-kinase catalytic subunit alpha isoform (Homo sapiens), P42336 [E545A]; settings: Compound concentration 1000.0 nM
[36] = target: Phosphatidylinositol 4,5-bisphosphate 3-kinase catalytic subunit beta isoform (Homo sapiens) (UniProt P42338); settings: Compound concentration 1000.0 nM
[37] = target: Interferon-induced, double-stranded RNA-activated protein kinase (Homo sapiens) (UniProt P19525); settings: Compound concentration 1000.0 nM
[38] = target: Ribosomal protein S6 kinase alpha-5 (Homo sapiens) (UniProt O75582); settings: Compound concentration 1000.0 nM
[39] = target: Serine/threonine-protein kinase SIK2 (Homo sapiens) (UniProt Q9H0K1); settings: Compound concentration 1000.0 nM
[40] = target: STE20/SPS1-related proline-alanine-rich protein kinase (Homo sapiens) (UniProt Q9UEW8); settings: Compound concentration 1000.0 nM
[41] = target: TRAF2 and NCK-interacting protein kinase (Homo sapiens) (UniProt Q9UKE5); settings: Compound concentration 1000.0 nM
[42] = target: Dual specificity protein kinase TTK (Homo sapiens) (UniProt P33981); settings: Compound concentration 1000.0 nM
[43] = target: Mu-type opioid receptor (Homo sapiens) (UniProt P35372); settings: Compound concentration 10.0 uM
[44] = target: Muscarinic acetylcholine receptor M2 (Homo sapiens) (UniProt P08172); settings: Compound concentration 10.0 uM
Sequence of Muscarinic acetylcholine receptor M2 (Homo sapiens) (P08172 whole entry): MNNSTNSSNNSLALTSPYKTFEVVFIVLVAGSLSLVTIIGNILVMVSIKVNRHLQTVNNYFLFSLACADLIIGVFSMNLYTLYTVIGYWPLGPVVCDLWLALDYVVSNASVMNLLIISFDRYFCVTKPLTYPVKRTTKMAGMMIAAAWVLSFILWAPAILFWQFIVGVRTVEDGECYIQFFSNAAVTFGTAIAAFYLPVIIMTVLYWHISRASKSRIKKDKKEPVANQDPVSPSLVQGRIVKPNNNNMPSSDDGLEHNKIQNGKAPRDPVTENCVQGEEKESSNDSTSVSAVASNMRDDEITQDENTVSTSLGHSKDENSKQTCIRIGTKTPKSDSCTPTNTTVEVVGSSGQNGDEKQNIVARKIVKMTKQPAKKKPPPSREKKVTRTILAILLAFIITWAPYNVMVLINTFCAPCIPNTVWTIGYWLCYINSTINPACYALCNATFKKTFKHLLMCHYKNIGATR

Sequence of NUAK family SNF1-like kinase 1 (Homo sapiens) (O60285 whole entry): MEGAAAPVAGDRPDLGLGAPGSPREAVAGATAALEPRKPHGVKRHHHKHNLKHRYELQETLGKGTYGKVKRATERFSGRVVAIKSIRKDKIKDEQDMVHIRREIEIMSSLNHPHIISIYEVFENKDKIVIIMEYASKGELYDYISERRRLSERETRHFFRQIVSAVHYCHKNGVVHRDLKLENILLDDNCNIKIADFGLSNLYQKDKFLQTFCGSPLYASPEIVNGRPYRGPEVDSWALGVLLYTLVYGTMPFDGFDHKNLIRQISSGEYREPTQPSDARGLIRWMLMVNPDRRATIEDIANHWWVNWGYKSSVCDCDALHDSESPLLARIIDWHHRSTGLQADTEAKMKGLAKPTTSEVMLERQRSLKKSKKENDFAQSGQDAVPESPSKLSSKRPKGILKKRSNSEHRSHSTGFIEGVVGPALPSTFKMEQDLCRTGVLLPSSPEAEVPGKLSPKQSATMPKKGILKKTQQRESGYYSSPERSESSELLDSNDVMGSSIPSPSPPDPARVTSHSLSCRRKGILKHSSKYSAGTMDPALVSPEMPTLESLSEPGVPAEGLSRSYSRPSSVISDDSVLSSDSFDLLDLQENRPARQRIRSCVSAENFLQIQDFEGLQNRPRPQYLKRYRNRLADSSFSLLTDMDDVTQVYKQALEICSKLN

C[C@@H](c1cccc(C#N)c1)n1cc(Cl)cc(C(N)=O)c1=N [(S)-9s]
inactive: residual activity [1] 100% | residual activity [2] 84% | residual activity [3] 89% | residual activity [4] 89% | residual activity [5] 95% | residual activity [6] 100% | residual activity [7] 99% | residual activity [8] 96% | residual activity [9] 100% | residual activity [10] 100% | residual activity [11] 90% | residual activity [12] 91% | residual activity [13] 79% | residual activity [14] 100% | residual activity [15] 95% | residual activity [16] 96% | residual activity [17] 85% | residual activity [18] 82% | residual activity [19] 79% | residual activity [20] 70% | residual activity [21] 100% | residual activity [22] 100% | residual activity [23] 98% | residual activity [24] 90% | residual activity [25] 100% | residual activity [26] 100% | residual activity [27] 76% | residual activity [28] 100% | residual activity [29] 100% | residual activity [30] 96% | residual activity [31] 100% | residual activity [32] 89% | residual activity [33] 84% | residual activity [34] 100% | residual activity [35] 98% | residual activity [36] 93% | residual activity [37] 100% | residual activity [38] 93% | residual activity [39] 100% | residual activity [40] 100% | residual activity [41] 56% | residual activity [42] 100% | inhibition [43] -6.83% | inhibition [44] 0.11%

C[C@H](c1cccc(C#N)c1)n1cc(Cl)cc(C(N)=O)c1=N [(R)-9s]
inactive: residual activity [1] 100% | residual activity [2] 90% | residual activity [3] 57% | residual activity [4] 94% | residual activity [5] 100% | residual activity [6] 100% | residual activity [7] 88% | residual activity [8] 97% | residual activity [9] 100% | residual activity [10] 100% | residual activity [11] 95% | residual activity [12] 92% | residual activity [13] 100% | residual activity [14] 95% | residual activity [15] 89% | residual activity [16] 100% | residual activity [17] 82% | residual activity [18] 85% | residual activity [19] 83% | residual activity [20] 81% | residual activity [21] 100% | residual activity [22] 88% | residual activity [23] 81% | residual activity [24] 99% | residual activity [25] 76% | residual activity [26] 97% | residual activity [27] 80% | residual activity [28] 95% | residual activity [29] 85% | residual activity [30] 84% | residual activity [31] 100% | residual activity [32] 84% | residual activity [33] 88% | residual activity [34] 92% | residual activity [35] 100% | residual activity [36] 94% | residual activity [37] 100% | residual activity [38] 92% | residual activity [39] 100% | residual activity [40] 100% | residual activity [41] 100% | residual activity [42] 66% | inhibition [43] -5.45% | inhibition [44] -3.2%
